Assays:
α/β-glucosidase = assay: Glucosidase treatment, amino acid production amount by HPLC; type: in vitro ADME; settings: phosphate buffer pH 5.5, 37° C., 30 min later
Procedure: Glc-Phe, Glc-Leu, Glc-Lys, Glc-Glu and Glc-DOPA were each dissolved in phosphate buffer (pH 5.5) at the ratio shown in Table 2, α/β-glucosidase in the amount shown in Table 2 was added, and the mixture was stirred in a hot-water bath at 37° C. The mixture was diluted 2-fold with 1% aqueous phosphoric acid solution, and analyzed by HPLC. […] As for Glc-Leu, about 80% of leucine was liberated 1 hr later; as for Glc-Lys, about 20% of lysine was liberated 1 hr later; as for Glc-Glu, about 40% of glutamic acid was liberated 1 hr later; and as for Glc-DOPA, about 70% of 3,4-dihydroxyphenylalanine was liberated 1 hr later.

[1] = Dissolution rate in stirring water; type: physicochemical; settings: for dissolution rate: inside temperature 34° C., n=2
Procedure: Leu and Glc-Leu were each added to stirring water (inside temperature 34° C.) in a hot-water bath at 35° C., and the dissolution rate was measured. The amount of the sample added and the measurement results are as shown below (n=2). As compared to Leu, Glc-Leu was dissolved 46 times faster in equal weight and 17 times faster in equimolar amount.

[2] = Heat stability of aqueous Glc-Leu solution (free Leu by HPLC); type: physicochemical; settings: aqueous solution 100 mg/dl; for Leu liberated: 90° C.
Procedure: On the other hand, free Leu was not confirmed at 60° C. even after 72 hr, and sufficient heat stability as an amino acid precursor was shown.

[3] = equivalent weight, 300 mg/25 ml water

remaining glycoamino acid (α/β-glucosidase)	dissolution rate ([1]; equimolar amount to glycoamino acid, 111 mg (0.85 mmol)/25 ml water)	dissolution rate [1, 3]	free Leu ([2]; 60° C., after 72 hr)	Leu liberated ([2]; 72 hr)	Leu liberated ([2]; about 6 hr)	dissolved faster as compared to Leu ([1]; in equal weight) [times]	dissolved faster as compared to Leu ([1]; in equimolar amount) [times]	SMILES
almost disappeared	–	–	–	–	–	–	–	O=C(N[C@@H](Cc1ccccc1)C(=O)O)OC1O[C@H](CO)[C@@H](O)[C@H](O)[C@H]1O (stereo partly drawn) [Glc-Phe, N-(α/β-D-glucopyranosyloxycarbonyl)-L-phenylalanine]
–	(450 sec)	(1203 sec)	–	–	–	–	–	CC(C)C[C@H](N)C(=O)O [Leu, L-leucine, reference compound]
–	–	26 s	not confirmed	liberated almost completely	about 50%	46	17	CC(C)C[C@H](NC(=O)OC1O[C@H](CO)[C@@H](O)[C@H](O)[C@H]1O)C(=O)O (stereo partly drawn) [Glc-Leu, N-(α/β-D-glucopyranosyloxycarbonyl)-L-leucine]

Reference: patent US10787476B2, “Glycoamino acid and use thereof” (AJINOMOTO CO., INC., priority 2013, dated 2020)
